Assay results taken from patent US9850247B2 (Almac Discovery Limited, priority 2013, dated 2017).
pIC50: −log10 of the molar value.

Assays:
[1] = CLint estimates using human liver microsomes (Method 4); format: in vitro ADME; conditions: pH 7.4, 1 μM compound, read-out: Mics - CLint (HLM CLint)
Procedure: Method 4: Determination of CLint Estimates Using Human liver microsomes Test compounds (final concentration=1 μM; final DMSO concentration=0.1%) were incubated in 0.1 M phosphate buffer pH 7.4 with human liver microsomes (0.5 mg of protein/mL) at 37° C. Reactions were started by addition of NADPH in 0.1 M phosphate buffer pH 7.4 (final concentration 1 mM). 40 μL aliquots were removed at 2, 5, 10, 15, 20, 30, 40 and 50 min. Reactions were quenched in 80 μL of ice-cold methanol. Samples were subsequently frozen overnight then centrifuged at 3500 rpm for 20 min at 4° C. The supernatants were removed and transferred into analytical plates and analysed by LC/MS/MS. LC/MS/MS Method: All samples were analysed on a Waters Acquity I-Class coupled to a Waters Xevo TQD mass spectrometer. A Waters BEH C18 2.1×50 mm 1.7 μm column was used and mobile phases were water and methanol containing 0.1% formic acid as modifier. Analysis was by multiple reaction monitoring and conditions were optimised for each test compound. Data Analyses: From a plot of 1n peak area against time, the gradient of the line is determined. Subsequently, half-life and intrinsic clearance are calculated using the following equations. [formula] [formula] [formula] where V=Incubation volume (μL)/number of cells Method 5: Determination of Kinetic Solubility (in PBS Buffer)

[2] = molecular target: T1, Wee-1 kinase (Homo sapiens, UniProt P30291); assay: Measurement of Wee-1 kinase activity (ADP-Glo luminescent kit); format: biochemical
T1 construct: purchased Invitrogen PV3817
Procedure: Method 1: Measurement of Wee-1 Kinase Activity
In the measurement of Wee-1 activity, a commercial peptide Poly(Lys Tyr (4:1)) hydrobromide was purchased from Sigma Aldrich and used as the substrate. Activated Wee-1 kinase was purchased from Invitrogen (PV3817) and an ADP-Glo luminescent kit was purchased from Promega.
All reactions took place in […] volumes in reaction buffer containing 40 mM Tris-HCl and 20 mM magnesium chloride, supplemented with 0.1 mg/mL bovine serum albumin and 2 mM DTT. Compounds were serially diluted in buffer and 5 μL of each concentration pipetted into a white 384 well plate (Sigma Aldrich M6186). A 5 μL aliquot of the Wee-1 enzyme was added to each well and the plate centrifuged for 1 min to ensure mixing of the enzyme and inhibitor.
The plate was incubated at room temperature for 30 minutes before the addition of 2.0 μg/mL of substrate and 30 μM ATP in a 5 μL aliquot. The plate was centrifuged for one minute and incubated for 1 h at RT.
15 µL of ADP-Glo stop reagent was added to each well to quench the reaction and deplete unconverted ATP. The plate was incubated for a further 40 min in the dark at RT.
30 μL of ADP-Glo kinase detection reagent was added to each well, converting ADP to ATP, catalysing the generation of luciferin by luciferase. The plate was shaken for 1 min, and incubated in the dark for an additional hour.
Luminescence from each well was detected using the Biotek Synergy4 HD plate reader and the percentage inhibition of kinase activity calculated for each inhibitor tested. Positive (kinase only) and negative (no kinase) controls were added to each plate to ensure specific interaction of kinase and inhibitor. The IC50 concentration for each inhibitor was calculated by plotting the percentage kinase inhibition against concentration of inhibitor and the curve generated by non-linear regression fitting.

T1 sequence (P30291 whole entry): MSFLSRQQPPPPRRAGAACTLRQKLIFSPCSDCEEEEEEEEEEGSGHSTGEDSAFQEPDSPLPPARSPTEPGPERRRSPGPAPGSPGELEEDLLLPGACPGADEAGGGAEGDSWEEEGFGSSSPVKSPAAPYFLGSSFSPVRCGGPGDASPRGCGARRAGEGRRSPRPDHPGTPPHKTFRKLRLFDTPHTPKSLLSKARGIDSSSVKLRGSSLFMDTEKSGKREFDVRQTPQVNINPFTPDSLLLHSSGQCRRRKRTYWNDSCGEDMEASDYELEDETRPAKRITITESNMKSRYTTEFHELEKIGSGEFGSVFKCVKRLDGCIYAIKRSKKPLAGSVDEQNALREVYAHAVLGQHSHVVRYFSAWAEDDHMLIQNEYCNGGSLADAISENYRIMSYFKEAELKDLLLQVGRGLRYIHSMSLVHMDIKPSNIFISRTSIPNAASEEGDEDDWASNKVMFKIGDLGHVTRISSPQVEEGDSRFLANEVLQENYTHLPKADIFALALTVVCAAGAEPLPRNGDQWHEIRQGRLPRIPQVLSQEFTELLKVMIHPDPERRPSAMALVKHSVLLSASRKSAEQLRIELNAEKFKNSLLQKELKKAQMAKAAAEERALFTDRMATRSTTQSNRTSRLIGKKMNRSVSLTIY

| Compound | microsomal CLint at 1 μM [1] [µL/min/mg] | pIC50 [2] |
| --- | --- | --- |
| CN1CN(c2c(Cl)cccc2Cl)C(=O)c2cnc(Nc3ccc(N4CCN(C)[C@@H](CO)C4)cc3)nc21 [Example 34, (R)-3-(2,6-dichlorophenyl)-7-((4-(3-(hydroxymethyl)-4-methylpiperazin-1-yl)phenyl)amino)-1-methyl-2,3-dihydropyrimido[4,5-d]pyrimidin-4(1H)-one] | 15 to 50 | 7.00 to 8.00 |
| CN1CC2CN(c3ccc(Nc4ncc5c(n4)N(C)CN(c4c(Cl)cccc4Cl)C5=O)cc3)CC2C1 (stereo not drawn) [Example 35, 3-(2,6-dichlorophenyl)-1-methyl-7-((4-(5-methylhexahydropyrrolo[3,4-c]pyrrol-2(1H)-yl)phenyl)amino)-2,3-dihydropyrimido[4,5-d]pyrimidin-4(1H)-one] | 15 to 50 | 7.00 to 8.00 |
| CN1CN(c2c(Cl)cccc2Cl)C(=O)c2cnc(Nc3ccc(N4CC5CNCC5C4)cc3)nc21 (stereo not drawn) [Example 36, 3-(2,6-dichlorophenyl)-7-((4-(hexahydropyrrolo [3,4-c]pyrrol-2(1H)-yl)phenyl)amino)-1-methyl-2,3-dihydropyrimido[4,5-d]pyrimidin-4(1H)-one] | 15 to 50 | 7.00 to 8.00 |
| CN1CN(c2c(Cl)cccc2Cl)C(=O)c2cnc(Nc3ccc(C4(N)CCC4)cc3)nc21 [Example 37, 7-((4-(1-aminocyclobutyl)phenyl)amino)-3-(2,6-dichlorophenyl)-1-methyl-2,3-dihydropyrimido[4,5-d]pyrimidin-4(1H)-one] | 15 to 50 | 7.00 to 8.00 |
| CN1CN(c2c(Cl)cccc2Cl)C(=O)c2cnc(Nc3ccc(N4C[C@@H]5C[C@H]4CN5)cc3)nc21 [Example 39, 7-((4-((1S,4S)-2,5-diazabicyclo[2.2.1]heptan-2-yl)phenyl)amino)-3-(2,6-dichlorophenyl)-1-methyl-2,3-dihydropyrimido[4,5-d]pyrimidin-4(1H)-one] | ≤ 15 | 7.00 to 8.00 |
| CN1CN(c2c(Cl)cccc2Cl)C(=O)c2cnc(Nc3ccc(N4CCOCC4)cc3)nc21 [Example 41, 3-(2,6-dichlorophenyl)-1-methyl-7-((4-morpholinophenyl)amino)-2,3-dihydropyrimido[4,5-d]pyrimidin-4(1H)-one] | 15 to 50 | 7.00 to 8.00 |
| CN1CN(c2c(Cl)cccc2Cl)C(=O)c2cnc(Nc3ccc(N4CCS(=O)(=O)CC4)cc3)nc21 [Example 42, 3-(2,6-dichlorophenyl)-7-((4-(1,1-dioxidothiomorpholino)phenyl)amino)-1-methyl-2,3-dihydropyrimido[4,5-d]pyrimidin-4(1H)-one] | 15 to 50 | 7.00 to 8.00 |
| CN1CN(c2c(Cl)cccc2Cl)C(=O)c2cnc(Nc3ccc(N4C[C@@H]5C[C@H]4CN5C)cc3)nc21 [Example 44, 3-(2,6-dichlorophenyl)-1-methyl-7-((4-((1S,4S)-5-methyl-2,5-diazabicyclo[2.2.1]heptan-2-yl)phenyl)amino)-2,3-dihydropyrimido[4,5-d]pyrimidin-4(1H)-one] | ≤ 15 | 7.00 to 8.00 |
| CN1CN(c2c(Cl)cccc2Cl)C(=O)c2cnc(Nc3ccc(N4CCN[C@H](CO)C4)c(F)c3)nc21 [Example 48, (S)-3-(2,6-dichlorophenyl)-7-((3-fluoro-4-(3-(hydroxymethyl)piperazin-1-yl)phenyl)amino)-1-methyl-2,3-dihydropyrimido[4,5-d]pyrimidin-4(1H)-one] | ≤ 15 | 7.00 to 8.00 |
| CN1CN(c2c(Cl)cccc2Cl)C(=O)c2cnc(Nc3ccc(N4CCN(C)[C@H](CO)C4)cc3)nc21 [Example 49, (S)-3-(2,6-dichlorophenyl)-7-((4-(3-(hydroxymethyl)-4-methylpiperazin-1-yl)phenyl)amino)-1-methyl-2,3-dihydropyrimido[4,5-d]pyrimidin-4(1H)-one] | 15 to 50 | 7.00 to 8.00 |
| C[C@@H]1CN(c2ccc(Nc3ncc4c(n3)N(c3ccn(C)n3)CN(c3c(Cl)cccc3Cl)C4=O)cc2)CCN1 [Example 58, (R)-3-(2,6-dichlorophenyl)-1-(1-methyl-1H-pyrazol-3-yl)-7-((4-(3-methylpiperazin-1-yl)phenyl)amino)-2,3-dihydropyrimido[4,5-d]pyrimidin-4(1H)-one] | ≤ 15 | ≥ 8.00 |
| CN1CN(c2c(Cl)cccc2Cl)C(=O)c2cnc(Nc3ccc(N4CC5COCC(C4)N5)cc3)nc21 [Example 64, 7-((4-(3-oxa-7,9-diazabicyclo[3.3.1]nonan-7-yl)phenyl)amino)-3-(2,6-dichlorophenyl)-1-methyl-2,3-dihydropyrimido[4,5-d]pyrimidin-4(1H)-one] | ≤ 15 | 7.00 to 8.00 |
| COC[C@@H]1CN(c2ccc(Nc3ncc4c(n3)N(C)CN(c3c(Cl)cccc3Cl)C4=O)cc2)CCN1C [Example 66, (S)-3-(2,6-dichlorophenyl)-7-((4-(3-(methoxymethyl)-4-methylpiperazin-1-yl)phenyl)amino)-1-methyl-2,3-dihydropyrimido[4,5-d]pyrimidin-4(1H)-one] | 15 to 50 | 7.00 to 8.00 |
| COCc1cc(Nc2ncc3c(n2)N(C)CN(c2c(Cl)cccc2Cl)C3=O)ccc1N1CCN(C)[C@H](C)C1 [Example 67, (R)-3-(2,6-dichlorophenyl)-7-((4-(3,4-dimethylpiperazin-1-yl)-3-(methoxymethyl)phenyl)amino)-1-methyl-2,3-dihydropyrimido[4,5-d]pyrimidin-4(1H)-one] | ≤ 15 | 7.00 to 8.00 |
| Cc1cc(Nc2ncc3c(n2)N(C)CN(c2c(Cl)cccc2Cl)C3=O)ccc1N1C[C@@H]2C[C@H]1CN2 [Example 75, 7-((4-((1S,4S)-2,5-diazabicyclo[2.2.1]heptan-2-yl)-3-methylphenyl)amino)-3-(2,6-dichlorophenyl)-1-methyl-2,3-dihydropyrimido[4,5-d]pyrimidin-4(1H)-one] | ≤ 15 | ≥ 8.00 |
| C[C@@H]1CN(c2ccc(Nc3ncc4c(n3)N(C)CN(c3c(Cl)cccc3Cl)C4=O)cc2)[C@H](C)CN1 [Example 79, 3-(2,6-dichlorophenyl)-7-((4-((2R,5R)-2,5-dimethylpiperazin-1-yl)phenyl)amino)-1-methyl-2,3-dihydropyrimido[4,5-d]pyrimidin-4(1H)-one] | 15 to 50 | 7.00 to 8.00 |
| COc1cc(Nc2ncc3c(n2)N(C)CN(c2c(Cl)cccc2Cl)C3=O)ccc1N1C[C@@H]2C[C@H]1CN2C [Example 84, 3-(2,6-dichlorophenyl)-7-((3-methoxy-4-((1S,4S)-5-methyl-2,5-diazabicyclo[2.2.1]heptan-2-yl)phenyl)amino)-1-methyl-2,3-dihydropyrimido[4,5-d]pyrimidin-4(1H)-one] | 15 to 50 | 7.00 to 8.00 |
| CN1CN(c2c(Cl)cccc2Cl)C(=O)c2cnc(Nc3ccc(OC4CCNCC4)cc3)nc21 [Example 87, 3-(2,6-dichlorophenyl)-1-methyl-7-((4-(piperidin-4-yloxy)phenyl)amino)-2,3-dihydropyrimido[4,5-d]pyrimidin-4(1H)-one] | ≤ 15 | 7.00 to 8.00 |
| CN1CCC(Oc2ccc(Nc3ncc4c(n3)N(C)CN(c3c(Cl)cccc3Cl)C4=O)cc2)CC1 [Example 90, 3-(2,6-dichlorophenyl)-1-methyl-7-((4-((1-methylpiperidin-4-yl)oxy)phenyl)amino)-2,3-dihydropyrimido[4,5-d]pyrimidin-4(1H)-one] | 15 to 50 | 7.00 to 8.00 |
| CN1CCC(Nc2cccc(Nc3ncc4c(n3)N(C)CN(c3c(Cl)cccc3Cl)C4=O)c2)CC1 [Example 91, 3-(2,6-dichlorophenyl)-1-methyl-7-((3-((1-methylpiperidin-4-yl)amino)phenyl)amino)-2,3-dihydropyrimido[4,5-d]pyrimidin-4(1H)-one] | ≤ 15 | 7.00 to 8.00 |
| CN1CN(c2ccccc2Cl)C(=O)c2cnc(Nc3ccc(N4CC5CCC(C4)N5C)c(CO)c3)nc21 [Example 97, 3-(2-chlorophenyl)-7-((3-(hydroxymethyl)-4-(8-methyl-3,8-diazabicyclo[3.2.1]octan-3-yl)phenyl)amino)-1-methyl-2,3-dihydropyrimido[4,5-d]pyrimidin-4(1H)-one] | ≤ 15 | 7.00 to 8.00 |
